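Abbreviation: GI50, concentration required for 50% inhibition of growth. TGI: concentration producing complete growth inhibition.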
Tests used:
Test in all cases: inhibition of tumour cell growth, NCI panel, 384-well format
786-0 renal = test system: 786-0 renal
A498 renal = test system: A498 renal
A549 NSCLC = test system: A549 NSCLC
ACHN renal = test system: ACHN renal
BT-549 breast = test system: BT-549 breast
CAKI-1 renal = test system: CAKI-1 renal
CCRF-CEM leukemia = test system: CCRF-CEM leukemia
COLO 205 colon = test system: COLO 205 colon
DU-145 prostate = test system: DU-145 prostate
EKVX NSCLC = test system: EKVX NSCLC
HCC-2998 colon = test system: HCC-2998 colon
HCT-15 colon = test system: HCT-15 colon
HL-60(TB) leukemia = test system: HL-60(TB) leukemia
HOP-62 NSCLC = test system: HOP-62 NSCLC
HOP-92 NSCLC = test system: HOP-92 NSCLC
HS 578T breast = test system: HS 578T breast
HT29 colon = test system: HT29 colon
IGROV1 ovarian = test system: IGROV1 ovarian
KM12 colon = test system: KM12 colon
M14 melanoma = test system: M14 melanoma
MALME-3M melanoma = test system: MALME-3M melanoma
MCF7 breast = test system: MCF7 breast
MDA-MB-231 breast = test system: MDA-MB-231 breast
MDA-MB-435 melanoma = test system: MDA-MB-435 melanoma
MDA-MB-468 breast = test system: MDA-MB-468 breast
MOLT-4 leukemia = test system: MOLT-4 leukemia
NCI-H226 lung = test system: NCI-H226 lung
NCI-H23 lung = test system: NCI-H23 lung
NCI-H322M lung = test system: NCI-H322M lung
NCI-H460 NSCLC = test system: NCI-H460 NSCLC
NCI-H522 lung = test system: NCI-H522 lung
NCI/ADR-RES ovarian = test system: NCI/ADR-RES ovarian
OVCAR-3 ovarian = test system: OVCAR-3 ovarian
OVCAR-4 ovarian = test system: OVCAR-4 ovarian
OVCAR-5 ovarian = test system: OVCAR-5 ovarian
OVCAR-8 ovarian = test system: OVCAR-8 ovarian
PC-3 prostate = test system: PC-3 prostate
RPMI-8226 leukemia = test system: RPMI-8226 leukemia
RXF 393 renal = test system: RXF 393 renal
SF-268 CNS = test system: SF-268 CNS
SF-295 CNS = test system: SF-295 CNS
SF-539 CNS = test system: SF-539 CNS
SK-MEL-2 melanoma = test system: SK-MEL-2 melanoma
SK-MEL-28 melanoma = test system: SK-MEL-28 melanoma
SK-MEL-5 melanoma = test system: SK-MEL-5 melanoma
SK-OV-3 ovarian = test system: SK-OV-3 ovarian
SN12C renal = test system: SN12C renal
SNB-19 CNS = test system: SNB-19 CNS
SNB-75 CNS = test system: SNB-75 CNS
SR leukemia = test system: SR leukemia
SW-620 colon = test system: SW-620 colon
T-47D breast = test system: T-47D breast
TK-10 renal = test system: TK-10 renal
U251 glioblastoma = test system: U251 glioblastoma
UACC-257 melanoma = test system: UACC-257 melanoma
UACC-62 melanoma = test system: UACC-62 melanoma

With Nc1nc(F)nc2c1ncn2C1OC(CO)C(O)C1O (configuration not stated) the GI50 (786-0 renal) was 17.8 µM, the TGI (786-0 renal) was 56 µM and the GI50 (A498 renal) was 19.4 µM. The TGI (A498 renal) was 73.7 µM, the GI50 (A549 NSCLC) was 29.8 µM and the TGI (A549 NSCLC) was > 100 µM. The GI50 (ACHN renal) was 21.7 µM, the TGI (ACHN renal) was 48.5 µM and the GI50 (BT-549 breast) was 12 µM. For the same compound, the TGI (BT-549 breast) was 46.1 µM, the GI50 (CAKI-1 renal) was 17.4 µM and the TGI (CAKI-1 renal) was 50.3 µM. For the same compound, the GI50 (CCRF-CEM leukemia) was 0.316 µM, the TGI (CCRF-CEM leukemia) was 1.23 µM and the GI50 (COLO 205 colon) was 11 µM. The TGI (COLO 205 colon) was 37.3 µM, the GI50 (DU-145 prostate) was 15.5 µM and the TGI (DU-145 prostate) was 57.5 µM. The GI50 (EKVX NSCLC) was > 100 µM, the TGI (EKVX NSCLC) was > 100 µM and the GI50 (HCC-2998 colon) was 2.11 µM. The TGI (HCC-2998 colon) was 8.44 µM, the GI50 (HCT-15 colon) was 32.2 µM and the TGI (HCT-15 colon) was > 100 µM. The GI50 (HL-60(TB) leukemia) was 2.12 µM, the TGI (HL-60(TB) leukemia) was 3.75 µM and the GI50 (HOP-62 NSCLC) was 5.5 µM. For the same compound, the TGI (HOP-62 NSCLC) was 21 µM, the GI50 (HOP-92 NSCLC) was 7.81 µM and the TGI (HOP-92 NSCLC) was 56.8 µM. The GI50 (HS 578T breast) was 30.6 µM, the TGI (HS 578T breast) was > 100 µM and the GI50 (HT29 colon) was 81.4 µM. For the same compound, the TGI (HT29 colon) was > 100 µM, the GI50 (IGROV1 ovarian) was 44.8 µM and the TGI (IGROV1 ovarian) was > 100 µM. For the same compound, the GI50 (KM12 colon) was 26.4 µM, the TGI (KM12 colon) was > 100 µM and the GI50 (M14 melanoma) was 2.6 µM. It also gave a TGI (M14 melanoma) of 8.62 µM, a GI50 (MALME-3M melanoma) of 1.81 µM and a TGI (MALME-3M melanoma) of 8.06 µM. For the same compound, the GI50 (MCF7 breast) was 26.6 µM, the TGI (MCF7 breast) was > 100 µM and the GI50 (MDA-MB-231 breast) was 6.96 µM. For the same compound, the TGI (MDA-MB-231 breast) was 47.9 µM, the GI50 (MDA-MB-435 melanoma) was 12.4 µM and the TGI (MDA-MB-435 melanoma) was > 100 µM. For the same compound, the GI50 (MDA-MB-468 breast) was 26.5 µM, the TGI (MDA-MB-468 breast) was 82.8 µM and the GI50 (MOLT-4 leukemia) was 1.15 µM. The TGI (MOLT-4 leukemia) was 2.37 µM, the GI50 (NCI-H226 lung) was 95.9 µM and the TGI (NCI-H226 lung) was > 100 µM. The GI50 (NCI-H23 lung) was 3.55 µM, the TGI (NCI-H23 lung) was 15.7 µM and the GI50 (NCI-H322M lung) was > 100 µM. The TGI (NCI-H322M lung) was > 100 µM, the GI50 (NCI-H460 NSCLC) was 16.5 µM and the TGI (NCI-H460 NSCLC) was 35.8 µM. For the same compound, the GI50 (NCI-H522 lung) was 4.68 µM, the TGI (NCI-H522 lung) was 36.9 µM and the GI50 (NCI/ADR-RES ovarian) was 2.34 µM. For the same compound, the TGI (NCI/ADR-RES ovarian) was 6.41 µM, the GI50 (OVCAR-3 ovarian) was 7.9 µM and the TGI (OVCAR-3 ovarian) was > 100 µM. For the same compound, the GI50 (OVCAR-4 ovarian) was > 100 µM, the TGI (OVCAR-4 ovarian) was > 100 µM and the GI50 (OVCAR-5 ovarian) was 34.2 µM. For the same compound, the TGI (OVCAR-5 ovarian) was > 100 µM, the GI50 (OVCAR-8 ovarian) was 1.98 µM and the TGI (OVCAR-8 ovarian) was 4.61 µM. The GI50 (PC-3 prostate) was 10.8 µM, the TGI (PC-3 prostate) was > 100 µM and the GI50 (RPMI-8226 leukemia) was 45.1 µM. The TGI (RPMI-8226 leukemia) was > 100 µM, the GI50 (RXF 393 renal) was 44.2 µM and the TGI (RXF 393 renal) was > 100 µM. It also gave a GI50 (SF-268 CNS) of 19.8 µM, a TGI (SF-268 CNS) of 54.7 µM and a GI50 (SF-295 CNS) of 76.2 µM. For the same compound, the TGI (SF-295 CNS) was > 100 µM, the GI50 (SF-539 CNS) was 59 µM and the TGI (SF-539 CNS) was > 100 µM. For the same compound, the GI50 (SK-MEL-2 melanoma) was 4.7 µM, the TGI (SK-MEL-2 melanoma) was 16.6 µM and the GI50 (SK-MEL-28 melanoma) was 3.11 µM. It also gave a TGI (SK-MEL-28 melanoma) of 15.2 µM, a GI50 (SK-MEL-5 melanoma) of 14.1 µM and a TGI (SK-MEL-5 melanoma) of 43.4 µM. It also gave a GI50 (SK-OV-3 ovarian) of 10.1 µM, a TGI (SK-OV-3 ovarian) of 44.1 µM and a GI50 (SN12C renal) of 6.16 µM. It also gave a TGI (SN12C renal) of 24.6 µM, a GI50 (SNB-19 CNS) of 7.28 µM and a TGI (SNB-19 CNS) of 42.8 µM. The GI50 (SNB-75 CNS) was 23.1 µM, the TGI (SNB-75 CNS) was > 100 µM and the GI50 (SR leukemia) was > 100 µM. For the same compound, the TGI (SR leukemia) was > 100 µM, the GI50 (SW-620 colon) was 49.8 µM and the TGI (SW-620 colon) was > 100 µM. For the same compound, the GI50 (T-47D breast) was 34.9 µM, the TGI (T-47D breast) was > 100 µM and the GI50 (TK-10 renal) was > 100 µM. The TGI (TK-10 renal) was > 100 µM, the GI50 (U251 glioblastoma) was 36.7 µM and the TGI (U251 glioblastoma) was > 100 µM. For the same compound, the GI50 (UACC-257 melanoma) was 50.8 µM, the TGI (UACC-257 melanoma) was > 100 µM and the GI50 (UACC-62 melanoma) was 28.8 µM. For the same compound, the TGI (UACC-62 melanoma) was 96.8 µM.

Reference: PubChem BioAssay (NCI)
